{"source": "patent US9034793B2", "about": "“Use of ribose to enhance plant growth” (Bioenergy, Inc., priority 2002, dated 2015)", "key": {"[1]": {"tested_on": "cut flower", "settings": "storage solution containing the compound; cited from earlier work"}, "[2]": {"tested_on": "bean seeds", "test": "Root growth assessment (Example 3)", "assay_type": "in vivo", "settings": "for Root appearance: 2 weeks, compared with water treated roots", "text": "Identical sized pots, containing the same consistency of soil media, were used in assessing root growth. Bean seeds of similar size were chosen. One seed was planted in each pot. The depth in the soil for each seed that was planted was the same. Paired pots (total of 3 pairs, 6 pots), each containing one bean seed, were used. One pair of pots received 2 teaspoons of water every other day (Group A). The second pair of pots received a low Ribose solution (1 teaspoon of D-ribose in 16 oz of water), each pot received 2 teaspoons of this low dose of Ribose every other day (Group B). The final pair of pots received a higher dose of Ribose (1 teaspoon of D-ribose in 4 oz of water), each pot received 2 teaspoons of this higher dose of Ribose every other day (Group C). In each pair of pots, roots were examined at week 1 and 2, by removing the roots of one pot only in each group at the designed test time point with soil emersion in a bucket of water. At week 2 all remaining pots had shoots emerging from the top soil. The roots were weighed and measured for length. […] This discrepancy expanded when the roots were analyzed at 2 weeks. […] The weight of the roots treated with high dose Ribose were appreciably less in weight than both the water and low dose Ribose treated groups."}, "[3]": {"tested_on": "beans (B)", "test": "Transplants in garden, growth and hardening after transplantation: beans", "assay_type": "in vivo, bean", "text": "(§1) Hosta (H. plantaginea grandiflora) plants were transplanted. The protocol was designed such that half of the plants were supplied with water alone and half of the plants received a ribose based solution, in which powdered D-ribose was mixed in water. All plants were transplanted at the same level in the soil and in like soil. All plants were watered at the same times of day, mid-morning and at dusk. Each plant received the same amount of water/watering (½ liter water at each watering). Results of plant growth data following transplantation are graphically depicted in FIGS. 1 and 2. [table]"}, "[4]": {"tested_on": "kohlrabi (K)", "test": "Transplants in garden, growth and hardening after transplantation: kohlrabi", "assay_type": "in vivo", "text": "as §1"}, "[5]": {"tested_on": "plants grown from seed (5 seeds per plot)", "test": "Plant feeding with ribose for growth (Table 1)", "assay_type": "in vivo, Hosta (H. plantaginea grandiflora)", "settings": "for Unsprouted: of 5 seeds per plot", "text": "as §1"}, "[6]": {"tested_on": "bean seeds", "test": "Fertilization with ribose combined with nitrogen, phosphorus, potassium", "assay_type": "in vivo", "settings": "ribose combined with the fertilizers nitrogen, phosphorus, and potassium", "procedure": "D-ribose plus nitrogen, nitrogen alone, or placebo was administered to bean seeds and measurements of growth and yield was made as in Example 2. D-ribose plus phosphorus, phosphorus alone, or placebo was administered to bean seeds and measurements of growth and yield was made as in Example 2. D-ribose plus potassium, potassium alone, or placebo was administered to bean seeds and measurements of growth and yield was made as in Example 2. D-ribose plus the combination, the combination alone, or placebo was administered to bean seeds and measurements of growth and yield was made as in Example 2."}, "[7]": {"settings": "Week 1 following seed implantation"}, "[8]": {"settings": "Week 2, plants cut off above the soil, just the roots weighed"}, "[9]": {"settings": "29-Sep, first measure after transplant"}}, "note": "“And” between values parts separate entries of the source, which are not always exact repeats. Equal entries are not always repeated."}
{"smiles": "CCSC[C@@H](O)[C@@H](O)[C@@H](O)C=O", "note": "[5-deoxy-5-ethylthio-D-ribose]", "values": [{"measurement": "Bloom life of a cut flower", "setting": "[1]", "result": "extend bloom life"}]}
{"smiles": "O=C[C@H](O)[C@H](O)[C@H](O)CO", "note": "[High Ribose, D-ribose]", "values": [{"measurement": "Root appearance", "setting": "[2]; listed as high dose Ribose", "result": "thick"}, {"measurement": "Root Length", "setting": "[2]; [7]", "result": 13.8, "unit": "cm"}, {"measurement": "Root Weight", "setting": "[2]; [7]", "result": 1.46, "unit": "gm"}, {"measurement": "Root Length", "setting": "[2]; Week 2", "result": 14.7, "unit": "cm"}, {"measurement": "Root Weight", "setting": "[2]; [8]", "result": 0.26, "unit": "gm"}, {"measurement": "Root Weight", "setting": "[2]; Week 2, plants cut off above the soil, just the roots weighed, listed as high dose Ribose", "result": "less in weight than both the low dose Ribose and water groups"}]}
{"smiles": "O=C[C@H](O)[C@H](O)[C@H](O)CO", "note": "[Low Ribose, D-ribose]", "values": [{"measurement": "Root appearance", "setting": "[2]; listed as low dose Ribose", "result": "thicker, shorter roots"}, {"measurement": "Root Length", "setting": "[2]; [7]", "result": 13.4, "unit": "cm"}, {"measurement": "Root Weight", "setting": "[2]; [7]", "result": 1.55, "unit": "gm"}, {"measurement": "Root Length", "setting": "[2]; Week 2", "result": 16.0, "unit": "cm"}, {"measurement": "Root Weight", "setting": "[2]; [8]", "result": 1.01, "unit": "gm"}]}
{"smiles": "O=C[C@H](O)[C@H](O)[C@H](O)CO", "note": "[R1, ribose]", "values": [{"measurement": "Bean measure to the Y", "setting": "[3]; 1-Nov, after transplant", "result": "17 cm and 12 cm"}, {"measurement": "Bean overall height", "setting": "[3]; 1-Nov, after transplant", "result": "33.5 cm and 18 cm"}, {"measurement": "Bean measure to the Y", "setting": "[3]; 9-Sep, before moving", "result": "9 cm and 10 cm and 6 cm"}, {"measurement": "Bean measure to the Y", "setting": "[3]; 19-Oct, after transplant", "result": "16 cm and 10 cm"}, {"measurement": "Bean measure to the Y", "setting": "[3]; [9]", "result": "14 cm and 9.5 cm"}, {"measurement": "Kohlrabi plant measure", "setting": "[4]; 1-Nov, after transplant", "result": "11 and 15.5 and 9.8 and 18"}, {"measurement": "Plant measures, Mean", "setting": "[5]; 23 June, 5 seeds per plot", "result": 1.65, "unit": "inches"}, {"measurement": "Unsprouted", "setting": "[5]; 23 June", "result": 2}, {"measurement": "#Plants/blossom", "setting": "[5]; Measured 8 July", "result": 1}, {"measurement": "Plant measures, Mean", "setting": "[5]; Measured 8 July", "result": 2.9, "unit": "inches"}]}
{"smiles": "O=C[C@H](O)[C@H](O)[C@H](O)CO", "note": "[R4, ribose]", "values": [{"measurement": "Bean measure to the Y", "setting": "[3]; 1-Nov, after transplant", "result": "10 cm and 13 cm"}, {"measurement": "Bean overall height", "setting": "[3]; 1-Nov, after transplant", "result": "27 cm and 30 cm"}, {"measurement": "Bean measure to the Y", "setting": "[3]; 9-Sep, before moving", "result": "6 cm and 8 cm"}, {"measurement": "Bean overall height", "setting": "[3]; 9-Sep, before moving", "result": "21 cm and 22 cm"}, {"measurement": "Bean measure to the Y", "setting": "[3]; 19-Oct, after transplant", "result": "8.75 cm and 12 cm"}, {"measurement": "Bean overall height", "setting": "[3]; 19-Oct, after transplant", "result": "26 cm and 28 cm"}, {"measurement": "Bean measure to the Y", "setting": "[3]; [9]", "result": "7.5 cm and 10.5 cm"}, {"measurement": "Bean overall height", "setting": "[3]; [9]", "result": "24 cm and 26 cm"}, {"measurement": "Kohlrabi plant measure", "setting": "[4]; 1-Nov, after transplant", "result": "16.5 and 19 and 22 and 21 and 15"}, {"measurement": "Kohlrabi plant measure", "setting": "[4]; 9-Sep, before moving", "result": "12 and 13 and 17 and 11"}, {"measurement": "Kohlrabi plant measure", "setting": "[4]; 19-Oct, after transplant", "result": "15 and 18 and 19.5 and 20 and 14.5"}, {"measurement": "Kohlrabi plant measure", "setting": "[4]; [9]", "result": "14 and 16 and 19 and 19.5 and 13"}, {"measurement": "Plant measures, Mean", "setting": "[5]; 23 June, 5 seeds per plot", "result": 8.45, "unit": "inches"}, {"measurement": "Unsprouted", "setting": "[5]; 23 June", "result": 0}, {"measurement": "Plant measures, measured to the Y, single plants", "setting": "[5]; 23 June, planted 4 June, 2 tablespoons every other day (3x per week)", "result": "6.5 inches and 8 inches and 8.25 inches and 9.5 inches and 10 inches"}, {"measurement": "#Plants/blossom", "setting": "[5]; Measured 8 July", "result": 5}, {"measurement": "Plant measures, Mean", "setting": "[5]; Measured 8 July", "result": 11.1, "unit": "inches"}, {"measurement": "Plant measures, measured to the Y, single plants", "setting": "[5]; Measured 8 July", "result": "8.75 inches and 10 inches and 10.5 inches and 11.75 inches and 12 inches"}]}
{"smiles": "O=C[C@H](O)[C@H](O)[C@H](O)CO", "note": "[Ribose, D-ribose]", "values": [{"measurement": "Root Length", "setting": "[2]; [7]", "result": "slightly shorter in length"}, {"measurement": "Root Weight", "setting": "[2]; [7]", "result": "heavier"}, {"measurement": "Improvement over solutions of ribose alone", "setting": "[6]", "result": "slight incremental improvements"}]}
